Measurements as given in patent publication US11013745B2, “Triazolopyrimidine, triazolopyridine compounds, and the composition thereof for treating PRC2-mediated diseases” (SHANGHAI INSTITUTE OF MATERIA MEDICA, CHINESE ACADEMY OF …, priority 2017, dated 2021).

Molecular target: PRC2 enzyme (Homo sapiens (Human), UniProt O75530)
Assay: PRC2 enzyme activity, TR-FRET method
Type: biochemical
Procedure: The TR-FRET method was used to measure the PRC2 enzyme activity. First, the enzyme was mixed with compounds at different concentrations and incubated for 30 min at room temperature. The biotin-labeled histone H3 peptide substrate and the cofactor S-adenosylmethionine (SAM) were added to initiate the enzymatic reaction. After reaction was performed at room temperature for 4 hour, Acceptor and Donor were added and incubated for half an hour. The multifunctional microplate reader EnVision (Perkin Elmer Inc.) was used to detect the fluorescence signal. Data were analyzed using GraphPad Prism 5.0 software, and IC50 values were obtained.

PRC2 enzyme, sequence (O75530 whole entry): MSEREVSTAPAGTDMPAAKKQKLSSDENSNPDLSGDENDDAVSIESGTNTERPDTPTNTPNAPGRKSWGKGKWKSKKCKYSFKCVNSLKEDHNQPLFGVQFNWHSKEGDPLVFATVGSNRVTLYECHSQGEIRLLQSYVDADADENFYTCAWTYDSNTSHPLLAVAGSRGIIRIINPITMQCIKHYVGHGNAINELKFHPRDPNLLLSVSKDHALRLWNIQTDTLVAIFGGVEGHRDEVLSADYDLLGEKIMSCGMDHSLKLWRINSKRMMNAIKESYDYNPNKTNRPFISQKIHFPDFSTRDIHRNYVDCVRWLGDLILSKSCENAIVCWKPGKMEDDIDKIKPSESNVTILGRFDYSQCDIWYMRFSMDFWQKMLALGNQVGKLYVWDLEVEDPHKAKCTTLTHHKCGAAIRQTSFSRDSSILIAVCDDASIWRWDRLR
PRC2 enzyme, sequence (Q15910 whole entry partner): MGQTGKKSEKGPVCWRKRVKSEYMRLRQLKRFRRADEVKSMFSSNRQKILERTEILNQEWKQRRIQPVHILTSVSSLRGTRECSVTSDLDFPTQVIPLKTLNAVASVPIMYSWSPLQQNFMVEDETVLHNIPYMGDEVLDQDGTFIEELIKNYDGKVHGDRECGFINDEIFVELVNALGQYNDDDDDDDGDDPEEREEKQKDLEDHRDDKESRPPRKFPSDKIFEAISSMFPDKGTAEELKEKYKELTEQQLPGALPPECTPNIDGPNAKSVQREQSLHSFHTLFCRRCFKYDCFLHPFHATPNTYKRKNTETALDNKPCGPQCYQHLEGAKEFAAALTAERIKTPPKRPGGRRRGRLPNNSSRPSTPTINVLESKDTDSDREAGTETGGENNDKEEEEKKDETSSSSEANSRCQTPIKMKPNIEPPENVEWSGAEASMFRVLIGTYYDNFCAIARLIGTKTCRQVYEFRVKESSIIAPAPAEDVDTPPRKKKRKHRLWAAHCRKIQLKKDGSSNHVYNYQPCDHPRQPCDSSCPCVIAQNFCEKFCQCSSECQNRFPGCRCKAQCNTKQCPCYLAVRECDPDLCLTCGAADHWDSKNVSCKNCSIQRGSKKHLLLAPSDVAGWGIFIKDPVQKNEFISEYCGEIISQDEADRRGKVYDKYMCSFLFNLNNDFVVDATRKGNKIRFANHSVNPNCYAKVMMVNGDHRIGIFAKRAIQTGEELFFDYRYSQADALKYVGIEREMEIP
PRC2 enzyme, sequence (Q15022 whole entry partner): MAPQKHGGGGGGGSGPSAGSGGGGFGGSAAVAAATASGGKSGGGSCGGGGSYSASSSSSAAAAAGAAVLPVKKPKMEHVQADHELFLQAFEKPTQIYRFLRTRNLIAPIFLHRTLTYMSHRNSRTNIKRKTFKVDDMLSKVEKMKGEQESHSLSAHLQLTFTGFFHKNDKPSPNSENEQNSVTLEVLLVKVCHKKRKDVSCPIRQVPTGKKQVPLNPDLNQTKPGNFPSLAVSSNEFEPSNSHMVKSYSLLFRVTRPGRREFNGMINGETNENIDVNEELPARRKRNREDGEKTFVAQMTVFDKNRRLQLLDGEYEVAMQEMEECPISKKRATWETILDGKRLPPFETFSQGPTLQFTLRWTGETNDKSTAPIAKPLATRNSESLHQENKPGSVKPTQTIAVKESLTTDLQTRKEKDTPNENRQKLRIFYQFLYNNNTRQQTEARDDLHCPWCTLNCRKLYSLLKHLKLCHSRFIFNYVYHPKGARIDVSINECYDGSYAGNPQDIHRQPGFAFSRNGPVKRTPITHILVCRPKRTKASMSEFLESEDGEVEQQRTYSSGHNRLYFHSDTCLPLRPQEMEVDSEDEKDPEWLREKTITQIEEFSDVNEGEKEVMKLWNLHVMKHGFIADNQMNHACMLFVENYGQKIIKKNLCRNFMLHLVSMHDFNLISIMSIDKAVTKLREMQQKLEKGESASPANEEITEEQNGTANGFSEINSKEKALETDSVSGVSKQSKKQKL

Compound	IC50 [nM]
C1=C(c2cnc(NCc3ccco3)n3cnnc23)CCSC1 [E-Y5]	611
Cc1ccc(S(=O)(=O)N2CC=C(c3cnc(NCc4c(F)ccc5c4CCO5)n4cnnc34)CC2)cc1 [E-Y14]	101
CS(=O)(=O)N1CC=C(c2cnc(NCc3ccco3)n3cnnc23)CC1 [E-Y22]	334
CC(C)(C)NC(=O)N1CC=C(c2cnc(NCc3ccco3)n3cnnc23)CC1 [E-Y25]	373
CC(=O)NC1CC=C(c2cnc(NCc3ccco3)n3cnnc23)CC1 (centres unmarked) [E-Y30]	793
O=C(NC1CC=C(c2cnc(NCc3ccco3)n3cnnc23)CC1)c1ccccc1 (centres unmarked) [E-Y31]	758
CS(=O)(=O)NC1CC=C(c2cnc(NCc3ccco3)n3cnnc23)CC1 (centres unmarked) [E-Y32]	342
CC(F)(F)C(=O)N1CC=C(c2cnc(NCc3ccco3)n3cnnc23)CC1 [E-Y34]	907
CN(C)CC(=O)N1CC=C(c2cnc(NCc3ccco3)n3cnnc23)CC1 [E-Y35]	318
O=C(NC(=S)N1CC=C(c2cnc(NCc3c(F)ccc4c3CCO4)n3cnnc23)CC1)c1ccccc1 [E-Y39]	54.5
CC(C)(C)OC(=O)N1CC=C(c2cc(C#N)c(NCc3ccco3)n3cnnc23)CC1 [E-Y51]	200
CC(C)(C)OC(=O)N1CC=C(c2cnc(NCc3cccc4occc34)n3cnnc23)CC1 [SL-ZYE-18]	115

More lines, now with the values ahead:

IC50 [nM]	Compound
8	Fc1ccc2c(c1CNc1ncc(C3=CCSCC3)c3nncn13)CCO2 [E-Y2]
10.7	CS(=O)(=O)N1CCC(c2cnc(NCc3c(F)ccc4c3CCO4)n3cnnc23)CC1 [E-Y13-H]
93.9	CC(=O)N1CCC(c2cnc(NCc3ccco3)n3cnnc23)CC1 [E-Y20-H]
91	Cc1ccc(NC(=O)N2CC=C(c3cnc(NCc4ccco4)n4cnnc34)CC2)cc1 [E-Y26]
1.7	CS(=O)(=O)N1CCC=C(c2cnc(NCc3c(F)ccc4c3CCO4)n3cnnc23)CC1 [SL-E14]
15	CN1CCC(c2cnc(NCc3c(F)ccc4c3CCO4)n3cnnc23)CC1 [SL-E25]
8.4	CN1CCC(c2cnc(NCc3c(F)ccc4c3CCO4)n3cnnc23)CC1=O (centres unmarked) [SL-E26]
11.9	Fc1ccc2c(c1CNc1ncc(C3CCCOCC3)c3nncn13)CCO2 (centres unmarked) [SL-ZYE-08]
17.9	C1=C(c2cnc(NCc3cccc4c3CCO4)n3cnnc23)CCOC1 [SL-ZYE-11]
84	c1cc(CNc2ncc(C3CCOCC3)c3nncn23)c2c(c1)OCC2 [SL-ZYE-14]
56	C1=C(c2cnc(NCc3cccc4occc34)n3cnnc23)CCOC1 [SL-ZYE-17]
47.6	CC1C=C(c2cnc(NCc3c(F)ccc4c3CCO4)n3cnnc23)CC(C)N1C(=O)OC(C)(C)C (centres unmarked) [SL-ZYE-23]
3.2	O=S1(=O)CCC(c2cnc(NCc3c(F)ccc4c3CCO4)n3cnnc23)CC1 [SL-ZYE-34]
3.6	CC1(C)C=C(c2cnc(NCc3c(F)ccc4c3CCO4)n3cnnc23)CCO1 [SL-ZYE-120]
4.2	CC1(C)CC(c2cnc(NCc3c(F)ccc4c3CCO4)n3cnnc23)CCO1 (centres unmarked) [SL-ZYE-121]
2.2	COC(=O)N1CCC=C(c2cnc(NCc3c(F)ccc4c3CCO4)n3cnnc23)CC1 [SL-ZYE-183]
22.3	CC1(C)C=C(c2cnc(NCc3c(F)ccc4c3CCO4)n3cnnc23)CC(C)(C)O1 [SL-ZYE-195]
